US10750742B2, “Pesticidally active pyrazole derivatives” (SYNGENTA PARTICIPATIONS AG, priority 2015, dated 2020)
Like-named read-outs stand apart in the source and are kept apart here.

Legend:
Assay type in all cases: in vivo
Tetranychus urticae = Tetranychus urticae (two-spotted spider mite), bean leaf disc test; conditions: foliar, 192 h, read-out: control (mortality on mixed population, mobile stages)
Protocol: Tetranychus urticae (Two-Spotted Spider Mite):
Bean leaf discs on agar in 24-well microtiter plates were sprayed with aqueous test solutions prepared from 10′000 ppm DMSO stock solutions. After drying the leaf discs were infested with a mite population of mixed ages. The samples were assessed for mortality on mixed population (mobile stages) 8 days after infestation.

Myzus persicae = Myzus persicae (green peach aphid), sucrose solution / Parafilm test; conditions: 120 h
Source text: Myzus persicae (Green Peach Aphid):
Test compounds were applied by pipette into 24 well plates and mixed with Sucrose solution. Application rate: 12.5 ppm. The plates were closed with a stretched parafilm. A plastic stencil with 24 holes is placed onto the plate and infested pea seedlings were placed directly on the Parafilm. The infested plate is closed with a gel blotting paper and another plastic stencil and then turned upside down. 5 days after infestation the samples were checked on mortality.

Spodoptera littoralis = Spodoptera littoralis (Egyptian cotton leaf worm), cotton leaf disc spray test; conditions: foliar, 72 h, read-out: control (at least one of mortality, anti-feedant effect, growth inhibition); for percent control (mortality, anti-feedant effect or growth inhibition) at 200 ppm: application rate 200 ppm, L1 larvae, 3 days after infestation
Protocol: Spodoptera littoralis (Egyptian Cotton Leaf Worm)
Cotton leaf discs were placed on agar in 24-well microtiter plates and sprayed with aqueous test solutions prepared from 10′000 ppm DMSO stock solutions. After drying the leaf discs were infested with five L1 larvae. The samples were assessed for mortality, anti-feedant effect, and growth inhibition in comparison to untreated samples 3 days after infestation. Control of Spodoptera littoralis by a test sample is when at least one of mortality, anti-feedant effect, and growth inhibition is higher than the untreated sample.

Diabrotica balteata = Diabrotica balteata (corn root worm), maize sprout test; conditions: 96 h, read-out: control (mortality and growth inhibition)
Protocol: Diabrotica balteata, (Corn Root Worm)
Maize sprouts, placed on an agar layer in 24-well microtiter plates were treated with aqueous test solutions prepared from 10′000 ppm DMSO stock solutions by spraying. After drying, the plates were infested with L2 larvae (6 to 10 per well). The samples were assessed for mortality and growth inhibition in comparison to untreated samples 4 days after infestation.

Euschistus heros = Euschistus heros (neotropical brown stink bug), soybean leaf test; conditions: 120 h, read-out: effect in at least one of the two categories (mortality or growth inhibition); for percent effect (mortality or growth inhibition) at 200 ppm: application rate 200 ppm, N2 nymphs, 5 days after infestation
Protocol: Euschistus heros (Neotropical Brown Stink Bug):
Soybean leaves on agar in 24-well microtiter plates were sprayed with aqueous test solutions prepared from 10′000 ppm DMSO stock solutions. After drying the leaves were infested with N2 nymphs. The samples were assessed for mortality and growth inhibition in comparison to untreated samples 5 days after infestation.

Thrips tabaci = Thrips tabaci (onion thrips), sunflower leaf disc test; conditions: foliar, 144 h, read-out: control (mortality)
Protocol: Thrips tabaci (Onion Thrips):
Sunflower leaf discs were placed on agar in 24-well microtiter plates and sprayed with aqueous test solutions prepared from 10′000 ppm DMSO stock solutions. After drying the leaf discs were infested with a thrips population of mixed ages. The samples were assessed for mortality 6 days after infestation.

Plutella xylostella = Plutella xylostella (diamond back moth), artificial diet test; conditions: 120 h, read-out: control (mortality and growth inhibition)
Protocol: Plutella xylostella (Diamond Back Moth):
24-well microtiter plates with artificial diet were treated with aqueous test solutions prepared from 10′000 ppm DMSO stock solutions by pipetting. After drying, the plates were infested with L2 larvae (10 to 15 per well). The samples were assessed for mortality and growth inhibition in comparison to untreated samples 5 days after infestation.

[1] = application rate 200 ppm, 8 days after infestation
[2] = test rate of 12 ppm, sucrose solution, 5 days after infestation, read-out: mortality
[3] = application rate 200 ppm, L2 larvae, 4 days after infestation
[4] = application rate 200 ppm, mixed ages, 6 days after infestation
[5] = application rate 200 ppm, L2 larvae, 5 days after infestation

Cn1nc(OC(F)(F)C(F)=C(C(F)(F)F)C(F)(F)F)c(C(F)(F)F)c1-n1cc(-c2ccc(Cl)c(C(=O)NC3(C#N)CC3)c2)cn1 [compound 14]
≥ 80%: mortality at 200 ppm (Tetranychus urticae; [1])

Cn1nc(OC(F)(F)C(F)(C(F)=C(F)C(F)(F)F)C(F)(F)F)c(C(F)(F)F)c1-n1cc(-c2ccc(Cl)c(C(=O)NC3CC3)c2)cn1 (stereo not drawn) [compound 51]
≥ 80%: mortality at 12 ppm (Myzus persicae; [2]) | percent control (mortality, anti-feedant effect or growth inhibition) at 200 ppm (Spodoptera littoralis) | mortality at 200 ppm (Diabrotica balteata; [3]) | percent effect (mortality or growth inhibition) at 200 ppm (Euschistus heros) | mortality at 200 ppm (Tetranychus urticae; [1]) | mortality at 200 ppm (Thrips tabaci; [4]) | mortality at 200 ppm (Plutella xylostella; [5])

Cn1nc(OC(Cl)(Cl)C(Cl)=C(Cl)Cl)c(C(F)(F)F)c1-n1cc(-c2ccc(Cl)c(C(=O)NC3CC3)c2)cn1 [compound 67]
≥ 80%: mortality at 200 ppm (Diabrotica balteata; [3]) | mortality at 200 ppm (Thrips tabaci; [4])

CCNC(=O)c1cc(-c2cnn(-c3c(C(F)(F)F)c(OC(F)(F)C(F)C(F)(F)F)nn3C)c2)ccc1Cl (stereo not drawn) [compound 9]
≥ 80%: mortality at 12 ppm (Myzus persicae; [2]) | percent control (mortality, anti-feedant effect or growth inhibition) at 200 ppm (Spodoptera littoralis) | mortality at 200 ppm (Diabrotica balteata; [3]) | percent effect (mortality or growth inhibition) at 200 ppm (Euschistus heros) | mortality at 200 ppm (Tetranychus urticae; [1]) | mortality at 200 ppm (Thrips tabaci; [4]) | mortality at 200 ppm (Plutella xylostella; [5])

Cn1nc(OCCCCC(F)=C(F)F)c(C(F)(F)F)c1-n1cc(-c2ccc(Cl)c(C(=O)NC3(C#N)CC3)c2)cn1 [compound 21]
≥ 80%: percent effect (mortality or growth inhibition) at 200 ppm (Euschistus heros) | mortality at 200 ppm (Tetranychus urticae; [1])

Cn1nc(OC(F)(F)C(F)C(F)(F)F)c(C(F)(F)F)c1-n1cc(-c2ccc(Cl)c(C(=O)NCC#N)c2)cn1 (stereo not drawn) [compound 10]
≥ 80%: mortality at 12 ppm (Myzus persicae; [2]) | percent control (mortality, anti-feedant effect or growth inhibition) at 200 ppm (Spodoptera littoralis) | mortality at 200 ppm (Diabrotica balteata; [3]) | mortality at 200 ppm (Tetranychus urticae; [1]) | mortality at 200 ppm (Thrips tabaci; [4]) | mortality at 200 ppm (Plutella xylostella; [5])

Cn1nc(OCCCCC(F)=C(F)F)c(C(F)(F)F)c1-n1cc(-c2ccc(Cl)c(C(=O)NC3CC3)c2)cn1 [compound 29]
≥ 80%: mortality at 200 ppm (Diabrotica balteata; [3])

Cn1nc(OC(F)=C(F)C(F)(F)F)c(C(F)(F)F)c1-n1cc(-c2ccc(Cl)c(C(=O)NC3CC3)c2)cn1 [compound 53]
≥ 80%: mortality at 12 ppm (Myzus persicae; [2]) | percent control (mortality, anti-feedant effect or growth inhibition) at 200 ppm (Spodoptera littoralis) | mortality at 200 ppm (Diabrotica balteata; [3]) | percent effect (mortality or growth inhibition) at 200 ppm (Euschistus heros) | mortality at 200 ppm (Tetranychus urticae; [1]) | mortality at 200 ppm (Thrips tabaci; [4]) | mortality at 200 ppm (Plutella xylostella; [5])

Cn1nc(O/C(=C(/F)C(F)(F)F)C(F)(F)F)c(C(F)(F)F)c1-n1cc(-c2ccc(Cl)c(C(=O)NC3(C#N)CC3)c2)cn1 [compound 42]
≥ 80%: percent control (mortality, anti-feedant effect or growth inhibition) at 200 ppm (Spodoptera littoralis) | mortality at 200 ppm (Diabrotica balteata; [3]) | percent effect (mortality or growth inhibition) at 200 ppm (Euschistus heros) | mortality at 200 ppm (Plutella xylostella; [5])

Cn1nc(OS(=O)(=O)C(F)(F)C(F)(F)C(F)(F)C(F)(F)F)c(C(F)(F)F)c1-n1cc(-c2ccc(Cl)c(C(=O)NC3(C#N)CC3)c2)cn1 [compound 36]
≥ 80%: mortality at 12 ppm (Myzus persicae) | mortality at 200 ppm (Diabrotica balteata) | percent control (mortality or growth inhibition) at 200 ppm (Euschistus heros) | mortality at 200 ppm (Thrips tabaci) | mortality at 200 ppm (Plutella xylostella)

Cn1nc(OS(=O)(=O)C(F)(F)F)c(C(F)(F)F)c1-n1cc(-c2ccc(Cl)c(C(=O)NC3(C#N)CC3)c2)cn1 [compound 16]
≥ 80%: percent control (mortality, anti-feedant effect or growth inhibition) at 200 ppm (Spodoptera littoralis) | mortality at 200 ppm (Diabrotica balteata; [3]) | percent effect (mortality or growth inhibition) at 200 ppm (Euschistus heros) | mortality at 200 ppm (Tetranychus urticae; [1]) | mortality at 200 ppm (Thrips tabaci; [4]) | mortality at 200 ppm (Plutella xylostella; [5])

Cn1nc(SCCC(F)(F)C(F)(F)C(F)(F)C(F)(F)C(F)(F)C(F)(F)F)c(Br)c1-n1cc(-c2ccc(Cl)c(C(=O)NC3CC3)c2)cn1 [compound 54]
≥ 80%: mortality at 200 ppm (Spodoptera littoralis) | mortality at 200 ppm (Plutella xylostella)

Cn1nc(OC(F)(F)C(F)C(F)(F)F)c(C(F)(F)F)c1-n1cc(-c2ccc(Cl)c(C(=O)N(/C(F)=C(\F)C(F)(F)F)C3(C#N)CC3)c2)cn1 (stereo not drawn) [compound 7]
≥ 80%: percent control (mortality, anti-feedant effect or growth inhibition) at 200 ppm (Spodoptera littoralis) | mortality at 200 ppm (Diabrotica balteata; [3]) | mortality at 200 ppm (Tetranychus urticae; [1]) | mortality at 200 ppm (Thrips tabaci; [4]) | mortality at 200 ppm (Plutella xylostella; [5])

Cn1nc(OS(=O)(=O)C(F)(F)C(F)(F)C(F)(F)C(F)(F)F)c(C(F)(F)F)c1-n1cc(-c2ccc(Cl)c(C(=O)NC3CC3)c2)cn1 [compound 37]
≥ 80%: mortality at 12 ppm (Myzus persicae) | mortality at 200 ppm (Diabrotica balteata) | percent control (mortality or growth inhibition) at 200 ppm (Euschistus heros) | mortality at 200 ppm (Thrips tabaci) | mortality at 200 ppm (Plutella xylostella)

COc1nn(C)c(-n2cc(-c3ccc(Cl)c(C(=O)N(C)C4(C#N)CC4)c3)cn2)c1C(F)(F)F [compound 56]
≥ 80%: mortality at 12 ppm (Myzus persicae; [2]) | mortality at 200 ppm (Diabrotica balteata; [3]) | mortality at 200 ppm (Plutella xylostella; [5])

Cn1nc(SCC(F)(F)C(F)F)c(Br)c1-n1cc(-c2ccc(Cl)c(C(=O)NC3CC3)c2)cn1 [compound 57]
≥ 80%: percent control (mortality, anti-feedant effect or growth inhibition) at 200 ppm (Spodoptera littoralis)

Cn1nc(OCC(F)(F)C(F)(F)C(F)(F)C(F)(F)C(F)(F)C(F)(F)C(F)(F)F)c(C(F)(F)F)c1-n1cc(-c2ccc(Cl)c(C(=O)NC3CC3)c2)cn1 [compound 31]
≥ 80%: mortality at 200 ppm (Plutella xylostella)

Cn1nc(OCCC(F)=C(F)F)c(C(F)(F)F)c1-n1cc(-c2ccc(Cl)c(C(=O)NC3(C#N)CC3)c2)cn1 [compound 46]
≥ 80%: percent control (mortality, anti-feedant effect or growth inhibition) at 200 ppm (Spodoptera littoralis) | mortality at 200 ppm (Thrips tabaci; [4]) | mortality at 200 ppm (Plutella xylostella; [5])

Cn1nc(OC(F)=C(F)C(F)(F)F)c(C(F)(F)F)c1-n1cc(-c2ccc(Cl)c(C(=O)NC3(C#N)CC3)c2)cn1 [compound 52]
≥ 80%: mortality at 12 ppm (Myzus persicae; [2]) | percent effect (mortality or growth inhibition) at 200 ppm (Euschistus heros) | mortality at 200 ppm (Tetranychus urticae; [1]) | mortality at 200 ppm (Thrips tabaci; [4])

Cn1nc(O/C(=C\F)C(F)(F)F)c(C(F)(F)F)c1-n1cc(-c2ccc(Cl)c(C(=O)NC3(C#N)CC3)c2)cn1 [compound 49]
≥ 80%: mortality at 12 ppm (Myzus persicae; [2]) | percent control (mortality, anti-feedant effect or growth inhibition) at 200 ppm (Spodoptera littoralis) | percent effect (mortality or growth inhibition) at 200 ppm (Euschistus heros) | mortality at 200 ppm (Tetranychus urticae; [1])

Cn1nc(OC(F)(F)C(F)(F)C(F)(F)C(F)(F)C(F)(F)C(F)(F)F)c(C(F)(F)F)c1-n1cc(-c2ccc(Cl)c(C(=O)NC3CC3)c2)cn1 [compound 39]
≥ 80%: mortality at 200 ppm (Spodoptera littoralis) | mortality at 200 ppm (Diabrotica balteata) | percent control (mortality or growth inhibition) at 200 ppm (Euschistus heros) | mortality at 200 ppm (Tetranychus urticae) | mortality at 200 ppm (Thrips tabaci) | mortality at 200 ppm (Plutella xylostella)

Cn1nc(OCCOC(F)(F)F)c(C(F)(F)F)c1-n1cc(-c2ccc(Cl)c(C(=O)NC3(C#N)CC3)c2)cn1 [compound 28]
≥ 80%: mortality at 12 ppm (Myzus persicae; [2]) | percent effect (mortality or growth inhibition) at 200 ppm (Euschistus heros)

Cn1nc(OC(F)(F)C(F)(F)C(F)(F)C(F)(F)C(F)(F)C(F)(F)F)c(C(F)(F)F)c1-n1cc(-c2ccc(Cl)c(C(=O)NC3(C#N)CC3)c2)cn1 [compound 38]
≥ 80%: mortality at 200 ppm (Spodoptera littoralis) | mortality at 200 ppm (Diabrotica balteata) | percent control (mortality or growth inhibition) at 200 ppm (Euschistus heros) | mortality at 200 ppm (Thrips tabaci) | mortality at 200 ppm (Plutella xylostella)

Cn1nc(OC(F)(F)C(F)C(F)(F)F)c(C(F)(F)F)c1-n1cc(-c2cccc(C(=O)NC3CC3)c2F)cn1 (stereo not drawn) [compound 68]
≥ 80%: percent control (mortality, anti-feedant effect or growth inhibition) at 200 ppm (Spodoptera littoralis) | mortality at 200 ppm (Diabrotica balteata; [3]) | mortality at 200 ppm (Tetranychus urticae; [1]) | mortality at 200 ppm (Thrips tabaci; [4])

Cn1nc(OCC(F)(F)C(F)(F)C(F)(F)C(F)(F)C(F)(F)C(F)(F)C(F)(F)F)c(C(F)(F)F)c1-n1cc(-c2ccc(Cl)c(C(=O)NC3(C#N)CC3)c2)cn1 [compound 22]
≥ 80%: mortality at 200 ppm (Spodoptera littoralis) | mortality at 200 ppm (Diabrotica balteata) | mortality at 200 ppm (Plutella xylostella)
